Test system: P-gp/BCRP
Assay: Small animal PET of mouse brain, vehicle vs pretreatment with P-gp/BCRP inhibitor TQD
Assay type: in vivo
Settings: mice, TQD 15 mg/kg 30 min before radiotracer
Description: Ten-week-old male rats (412 ± 58 g, Sprague-Dawley, HIM:OFA, n = 30) and 12-week-old male mice (24 ± 6 g, BALB/cAnNRj, n = 7) were purchased from the Division of Laboratory Animal Science and Genetics, Himberg, Austria. Animals were kept under conventional housing conditions (22 ± 1 °C; 40–70 % humidity) with food and water supply ad libitum and 12-h day/night cycle. All animals were treated according to the European Union rules on animal care and respective animal experiments were approved by the Austrian Ministry of Sciences, Research and Economy (BMWFW-66.009/0029-WF/V/3b/20159). For in vivo imaging, animals were anesthetized using 1.5–2 % isoflurane mixed with oxygen (1.5–2 l/min) to avoid movement during the examination. Anesthesia as well as vital parameters were monitored during the time interval of PET acquisition. Radioligands and non-labeled compounds were administered intravenously via the lateral tail vein.
Anesthetized rats and mice were immobilized in a multimodal animal carrier unit (MACU; medres®—medical research GmbH, Cologne, Germany). The body temperature was preserved at 37 °C throughout the whole experiment. […]

In the case of `COCC1=C(C(=O)OCC[18F])C(c2ccc(F)c(F)c2)N(C(=O)NCCCN2CCC(c3cccc(NC(C)=O)c3)CC2)C(=O)N1` (stereo not shown) [[^18F]FE@SNAP], the “increase of brain uptake in TQD blocking group vs vehicle” value is reported as 1.93 fold.
